Reference: publication PMC5318439, “The Novel Toll-Like Receptor 2 Agonist SUP3 Enhances Antigen Presentation and T Cell Activation by Dendritic Cells” (Frontiers in Immunology, 2017)
Where a SMILES comes first, the peptide text is derived from it. The star is where a group is joined. X1 = CCCCCCCCCCCCCCNC(=O)OC[C@H](C*)OC(=O)NCCCCCCCCCCCCCC; Palmitoyl = CCCCCCCCCCCCCCCC(=O)*

Columns and labels:
GMDCs = assay: Cytokine production by GMDCs; type: cell-based, mice; details: 200 nM, 24 h, ELISA; SUP3 versus Pam3
Protocol: Splenic DCs (5 × 10^5 cells/mL) were stimulated by Pam3 (200 nM), SUP3 (200 nM), or CpG ODN 1668 (20 nM; Adipogen IAX-200-001) in the GM-CSF (20 ng/mL) supplemented medium for indicated periods. Cell culture supernatants were harvested at indicated time points and stored at −40°C. RAW 264.7 cells and GMDCs were stimulated by lipopolysaccharide (LPS) (20 ng/mL; Adipogen IAX-100-013), Pam3, or SUP3 (both at 200 nM) for 24 h. For in vivo administration, Pam3 (2 nmol per mouse), SUP3 (2 nmol per mouse), or LPS (1 µg per mouse) were intravenously (i.v.) injected via tail veins. Serum was obtained through tail vein bleeding and centrifuged after coagulation and stored at −40°C. Cytokines (IL-6, eBioscience 88-7064; TNFα, eBioscience 88-7324; IL-12p40, BioLegend 431604), chemokine (MIP1α, R&D Systems DY450-05), and total IgM (eBioscience, 88-50470) were quantified by ELISA kits following the instructions of manufacturers.
Figure 1 Specificity and activity of novel TLR2 agonist SUP3. (A) Schematic chemical structure of SUP3. (B) Surface expression of TLR2 in wild-type (WT) and Tlr2^−/− RAW 264.7 cell lines. Gray shadows represented isotype control and black lines represented TLR2. […] The production of cytokines IL-6 and TNFα in culture supernatant was determined by ELISA. *p < 0.05, ****p < 0.0001, “n.s.” indicates statistically non-significant.

[1] = TD antigen (NP-KLH) immunization and antibody titer analysis; type: in vivo, mice; details: NP-KLH 5 µg per mouse i.p. with 2 nmol per mouse; serum ELISA weekly; vs Pam3
Protocol: Thymus-dependent antigen immunization and antibody titer analysis were performed as previously described ([43]). Briefly, wild-type (WT) mice were immunized by i.p. injection of TD antigen nitrophenyl-keyhole limpet hemocyanin (NP-KLH, 5 µg per mouse; Biosearch Technologies N-5060) alone, or mixed with SUP3 (2 nmol per mouse), Pam3 (2 nmol per mouse), or alum (3 µg per mouse; Thermo 77161). Serum was harvested every week, and nitrophenyl-specific IgM and IgG were determined by ELISA. IgM and total IgG were captured by nitrophenyl 30mer (Biosearch Technologies N-5050H), and high affinity IgG was captured by nitrophenyl 8mer (Biosearch Technologies N-5050L) pre-coated ELISA plates (Corning 9018).
Figure 5 SUP3 enhanced antigen presentation ability of CD11b^+ conventional dendritic cells (cDCs) and production of antibodies against thymus-dependent (TD) antigens. […] Three days after immunization, division of OT-II CD4^+ T cells from inguinal lymph nodes were analyzed by flow cytometry (B). Absolute numbers of proliferated OT-II CD4^+ T cells were calculated in (C). […] Cells were then thoroughly washed and cocultured with CFSE-stained OT-II CD4^+ T cells for 4 days and analyzed by flow cytometry. (D) The division of OT-II cells was measured by reduced level of CFSE-labeling. (E) Absolute numbers of proliferated T cells from (D) were calculated. […]

SMILES: CCCCCCCCCCCCCCCC(=O)N[C@@H](CSC[C@@H](COC(=O)NCCCCCCCCCCCCCC)OC(=O)NCCCCCCCCCCCCCC)C(=O)NCC(=O)N[C@@H](CCCCN)C(=O)N[C@@H](CCCCN)C(=O)N[C@@H](CCCCN)C(=O)O [SUP3, (2S,5S,8S,14R,18R)-2,5,8-tris(4-aminobutyl)-4,7,10,13,21-pentaoxo-14-palmitamido-18-((tetradecylcarbamoyl)oxy)-20-oxa-16-thia-3,6,9,12,22-pentaazahexatriacontan-1-oic acid] (Palmitoyl-C(X1)GKKK-OH)
- production of IL-6 and TNFα by GMDCs (GMDCs): comparable
- titers of TD antigen-specific antibodies (IgM, total IgG, high affinity IgG) [1]: higher titers
